Experimental data as given in patent publication US20240099304A1, “SYNERGISTIC HERBICIDAL COMPOSITIONS OF METAMIFOP” (Parijat Industries (India) Private Limited, priority 2021, published 2024).

Legend:
Assay type in all cases: in vivo
Brachiaria eruciformis = test: Field efficacy on grass weed in soybean, post-emergence foliar application
Description: (§1) As described in the Herbicide Handbook of the Weed Science Society of America, Ninth Edition, 2007, p. 429, “synergism” [is] an interaction of two or more factors such that the effect when combined is greater than the predicted effect based on the response to each factor applied separately. In the Colby method, the expected (or predicted) response of a combination of herbicides is calculated by taking the product of the observed response for each individual component of the combination when applied alone divided by 100 and subtracting this value from the sum of the observed response for each component while applied alone. An unexpected enhancement in efficacy of the combination is then determined by comparing the observed response of the combination to the expected (or predicted) response as calculated from the observed response of each individual component alone. If the observed response of the combination is greater than the expected (or predicted) response, or stated conversely, if the difference between the observed and expected response is greater than zero, then the combination is said to be synergistic or unexpectedly effective. (Colby, S. R., Weeds, 1967(15), p. 20-22). The Colby method required only a single dose of each herbicide applied alone and the mixture of both doses.
(§2) Synergy Study: The following formula was used to calculate the expected activity of mixtures containing active ingredients, A and B:
(§3) • A=Observed efficacy of active ingredient (combination of Metamifop and Imidazolinone herbicides) A at the same concentration as used in the mixture. • B=observed efficacy of active ingredient B at the same concentration as used in the mixture. However, following formula was used to calculate the expected activity of mixtures containing three active ingredients, A, B and C:
(§4) • A=observed efficacy of active ingredient (combination of Metamifop and Imidazolinone herbicides) A at the same concentration as used in the mixture. • B=observed efficacy of active ingredient B at the same concentration as used in the mixture. • C=observed efficacy of active ingredient C at the same concentration as used in the mixture.
(§5) EFFICACY STUDY: The field experiments were carried out to test the synergy of the combination Metamifop, Imazethapyr, and Imazamox in India at various locations like in MP, Maharashtra, Karnataka, and Telangana on farmer's field against soybean weeds during Kharif season. The experiment comprising of 15 treatments including premixed binary and ternary combinations along with their stand-alone molecule using a randomized block design replicated thrice. All the treatments were applied as post-emergence foliar application when the weeds reached to two to four leaf stage. The spray was conducted with the help of Battery-operated Knapsack sprayer. The percentage efficacy was calculated after 14 and 21 days after application of herbicides.
(§6) The weeds present in the experimental fields were echinochloa conola, echinochloa crusgalli, brachiaria euriciformis, rottboellia cochinchinensis, cynodon dactylon, parthenium hyterophorus, digera arvensis, cynotis axillaris, acalypha indica, Commelina benghalensis, celosia argentia, cyperus spp.

Echinochloa crusgalli = test: as above
Description: as §1, §2, §3, §4, §5, §6

[1] = tested on: Rottboellia cochinchinensis; test: as above
Description: as §1, §2, §3, §4, §5, §6

Commelina benghalensis = test: Field efficacy on broad leaf weed in soybean, post-emergence foliar application
Description: as §1, §2, §3, §4, §5, §6

Cyanotis axillaris = test: as above
Description: as §1, §2, §3, §4, §5, §6

Parthenium hysterophorus = test: as above
Description: as §1, §2, §3, §4, §5, §6

Soybean = test: Phytotoxicity in Soybean, visual grading on 0-10 scale; parameters: key: visual phytotoxicity grade on 0-10 scale
Description: as §5
Phytotoxic effect of herbicidal combination of Metamifop, Imazethapyr and Imazamox in soyabean: Table 5, 10 show the visual observations and grading on phytotoxicity which was recorded for leaf injury on tip/surface, Epinasty/Hyponasty, and wilting etc. on 0-10 scale (as below) at 1, 3, 7, 14 and 21 days after application of the present herbicidal composition.

[2] = tested on: hard to kill broad leaf weeds; test: Field efficacy, summary on broad leaf weeds
Description: as §1, §5

[3] = 14 DAA, Imazethapyr 35 gm ai/ha
[4] = 14 DAA, Imazethapyr 40 gm ai/ha
[5] = 14 DAA, Imazethapyr 50 gm ai/ha
[6] = 14 DAA, Imazethapyr 75.375 gm ai/ha
[7] = 21 DAA, Imazethapyr 35 gm ai/ha
[8] = 21 DAA, Imazethapyr 40 gm ai/ha
[9] = 21 DAA, Imazethapyr 50 gm ai/ha
[10] = 21 DAA, Imazethapyr 75.375 gm ai/ha

SMILES: COCc1cnc(C2=NC(C)(C(C)C)C(=O)N2)c(C(=O)O)c1 (stereo not drawn) [Imazamox]
- % Weed control burn down symptoms generation Observed (Brachiaria eruciformis; 14 DAA, Imazamox 20 gm ai/ha): 0%
- % Weed control burn down symptoms generation Observed (Brachiaria eruciformis; 14 DAA, Imazamox 30 gm ai/ha): 0%
- % Weed control burn down symptoms generation Observed (Brachiaria eruciformis; 14 DAA, Imazamox 35 gm ai/ha): 0%
- % Weed control burn down symptoms generation Observed (Brachiaria eruciformis; 21 DAA, Imazamox 20 gm ai/ha): 0%
- % Weed control burn down symptoms generation Observed (Brachiaria eruciformis; 21 DAA, Imazamox 30 gm ai/ha): 0%
- % Weed control burn down symptoms generation Observed (Brachiaria eruciformis; 21 DAA, Imazamox 35 gm ai/ha): 0%
- % Weed control burn down symptoms generation Observed (Echinochloa crusgalli; 14 DAA, Imazamox 20 gm ai/ha): 0%
- % Weed control burn down symptoms generation Observed (Echinochloa crusgalli; 14 DAA, Imazamox 30 gm ai/ha): 0%
- % Weed control burn down symptoms generation Observed (Echinochloa crusgalli; 14 DAA, Imazamox 35 gm ai/ha): 0%
- % Weed control burn down symptoms generation Observed (Echinochloa crusgalli; 21 DAA, Imazamox 20 gm ai/ha): 0%
- % Weed control burn down symptoms generation Observed (Echinochloa crusgalli; 21 DAA, Imazamox 30 gm ai/ha): 0%
- % Weed control burn down symptoms generation Observed (Echinochloa crusgalli; 21 DAA, Imazamox 35 gm ai/ha): 0%
- % Weed control burn down symptoms generation Observed ([1]; 14 DAA, Imazamox 20 gm ai/ha): 0%
- % Weed control burn down symptoms generation Observed ([1]; 14 DAA, Imazamox 30 gm ai/ha): 0%
- % Weed control burn down symptoms generation Observed ([1]; 14 DAA, Imazamox 35 gm ai/ha): 0%
- % Weed control burn down symptoms generation Observed ([1]; 21 DAA, Imazamox 20 gm ai/ha): 0%
- % Weed control burn down symptoms generation Observed ([1]; 21 DAA, Imazamox 30 gm ai/ha): 0%
- % Weed control burn down symptoms generation Observed ([1]; 21 DAA, Imazamox 35 gm ai/ha): 0%
- % Weed control burn down symptoms generation Observed (Commelina benghalensis; 14 DAA, Imazamox 20 gm ai/ha): 0%
- % Weed control burn down symptoms generation Observed (Commelina benghalensis; 14 DAA, Imazamox 30 gm ai/ha): 4%
- % Weed control burn down symptoms generation Observed (Commelina benghalensis; 14 DAA, Imazamox 35 gm ai/ha): 6%
- % Weed control burn down symptoms generation Observed (Commelina benghalensis; 21 DAA, Imazamox 20 gm ai/ha): 0%
- % Weed control burn down symptoms generation Observed (Commelina benghalensis; 21 DAA, Imazamox 30 gm ai/ha): 0%
- % Weed control burn down symptoms generation Observed (Commelina benghalensis; 21 DAA, Imazamox 35 gm ai/ha): 0%
- % Weed control burn down symptoms generation Observed (Cyanotis axillaris; 14 DAA, Imazamox 20 gm ai/ha): 0%
- % Weed control burn down symptoms generation Observed (Cyanotis axillaris; 14 DAA, Imazamox 30 gm ai/ha): 0%
- % Weed control burn down symptoms generation Observed (Cyanotis axillaris; 14 DAA, Imazamox 35 gm ai/ha): 0%
- % Weed control burn down symptoms generation Observed (Cyanotis axillaris; 21 DAA, Imazamox 20 gm ai/ha): 0%
- % Weed control burn down symptoms generation Observed (Cyanotis axillaris; 21 DAA, Imazamox 30 gm ai/ha): 0%
- % Weed control burn down symptoms generation Observed (Cyanotis axillaris; 21 DAA, Imazamox 35 gm ai/ha): 0%
- % Weed control burn down symptoms generation Observed (Parthenium hysterophorus; 14 DAA, Imazamox 20 gm ai/ha): 0%
- % Weed control burn down symptoms generation Observed (Parthenium hysterophorus; 14 DAA, Imazamox 30 gm ai/ha): 0%
- % Weed control burn down symptoms generation Observed (Parthenium hysterophorus; 14 DAA, Imazamox 35 gm ai/ha): 0%
- % Weed control burn down symptoms generation Observed (Parthenium hysterophorus; 21 DAA, Imazamox 20 gm ai/ha): 0%
- % Weed control burn down symptoms generation Observed (Parthenium hysterophorus; 21 DAA, Imazamox 30 gm ai/ha): 0%
- % Weed control burn down symptoms generation Observed (Parthenium hysterophorus; 21 DAA, Imazamox 35 gm ai/ha): 0%
- Phytotoxicity score (Soybean; Soybean, 1 DAA, Imazamox 20 gm ai/ha): 0
- Phytotoxicity score (Soybean; Soybean, 1 DAA, Imazamox 30 gm ai/ha): 0
- Phytotoxicity score (Soybean; Soybean, 1 DAA, Imazamox 35 gm ai/ha): 0
- Phytotoxicity score (Soybean; Soybean, 3 DAA, Imazamox 20 gm ai/ha): 0
- Phytotoxicity score (Soybean; Soybean, 3 DAA, Imazamox 30 gm ai/ha): 0
- Phytotoxicity score (Soybean; Soybean, 3 DAA, Imazamox 35 gm ai/ha): 0
- Phytotoxicity score (Soybean; Soybean, 7 DAA, Imazamox 20 gm ai/ha): 0
- Phytotoxicity score (Soybean; Soybean, 7 DAA, Imazamox 30 gm ai/ha): 0
- Phytotoxicity score (Soybean; Soybean, 7 DAA, Imazamox 35 gm ai/ha): 0
- Phytotoxicity score (Soybean; Soybean, 14 DAA, Imazamox 20 gm ai/ha): 0
- Phytotoxicity score (Soybean; Soybean, 14 DAA, Imazamox 30 gm ai/ha): 0
- Phytotoxicity score (Soybean; Soybean, 14 DAA, Imazamox 35 gm ai/ha): 0
- Phytotoxicity score (Soybean; Soybean, 21 DAA, Imazamox 20 gm ai/ha): 0
- Phytotoxicity score (Soybean; Soybean, 21 DAA, Imazamox 30 gm ai/ha): 0
- Phytotoxicity score (Soybean; Soybean, 21 DAA, Imazamox 35 gm ai/ha): 0
- Control on targeted weeds, applied alone ([2]; at 14 days): no or very less control
- Control on targeted weeds, applied alone ([2]; at 21 days): no or very less control

SMILES: CCc1cnc(C2=NC(C)(C(C)C)C(=O)N2)c(C(=O)O)c1 (stereo not drawn) [Imazethapyr]
- % Weed control burn down symptoms generation Observed (Brachiaria eruciformis; [3]): 8%
- % Weed control burn down symptoms generation Observed (Brachiaria eruciformis; [4]): 10%
- % Weed control burn down symptoms generation Observed (Brachiaria eruciformis; [5]): 20%
- % Weed control burn down symptoms generation Observed (Brachiaria eruciformis; [6]): 22%
- % Weed control burn down symptoms generation Observed (Brachiaria eruciformis; [7]): 0%
- % Weed control burn down symptoms generation Observed (Brachiaria eruciformis; [8]): 0%
- % Weed control burn down symptoms generation Observed (Brachiaria eruciformis; [9]): 0%
- % Weed control burn down symptoms generation Observed (Brachiaria eruciformis; [10]): 15%
- % Weed control burn down symptoms generation Observed (Echinochloa crusgalli; [3]): 15%
- % Weed control burn down symptoms generation Observed (Echinochloa crusgalli; [4]): 18%
- % Weed control burn down symptoms generation Observed (Echinochloa crusgalli; [5]): 18%
- % Weed control burn down symptoms generation Observed (Echinochloa crusgalli; [6]): 20%
- % Weed control burn down symptoms generation Observed (Echinochloa crusgalli; [7]): 8%
- % Weed control burn down symptoms generation Observed (Echinochloa crusgalli; [8]): 12%
- % Weed control burn down symptoms generation Observed (Echinochloa crusgalli; [9]): 16%
- % Weed control burn down symptoms generation Observed (Echinochloa crusgalli; [10]): 18%
- % Weed control burn down symptoms generation Observed [1, 3]: 0%
- % Weed control burn down symptoms generation Observed [1, 4]: 0%
- % Weed control burn down symptoms generation Observed [1, 5]: 25%
- % Weed control burn down symptoms generation Observed [1, 6]: 30%
- % Weed control burn down symptoms generation Observed [1, 7]: 0%
- % Weed control burn down symptoms generation Observed [1, 8]: 0%
- % Weed control burn down symptoms generation Observed [1, 9]: 0%
- % Weed control burn down symptoms generation Observed [1, 10]: 0%
- % Weed control burn down symptoms generation Observed (Commelina benghalensis; [3]): 6%
- % Weed control burn down symptoms generation Observed (Commelina benghalensis; [4]): 22%
- % Weed control burn down symptoms generation Observed (Commelina benghalensis; [5]): 35%
- % Weed control burn down symptoms generation Observed (Commelina benghalensis; [6]): 56%
- % Weed control burn down symptoms generation Observed (Commelina benghalensis; [7]): 0%
- % Weed control burn down symptoms generation Observed (Commelina benghalensis; [8]): 13%
- % Weed control burn down symptoms generation Observed (Commelina benghalensis; [9]): 20%
- % Weed control burn down symptoms generation Observed (Commelina benghalensis; [10]): 45%
- % Weed control burn down symptoms generation Observed (Cyanotis axillaris; [3]): 12%
- % Weed control burn down symptoms generation Observed (Cyanotis axillaris; [4]): 25%
- % Weed control burn down symptoms generation Observed (Cyanotis axillaris; [5]): 447%
- % Weed control burn down symptoms generation Observed (Cyanotis axillaris; [6]): 0%
- % Weed control burn down symptoms generation Observed (Cyanotis axillaris; [7]): 0%
- % Weed control burn down symptoms generation Observed (Cyanotis axillaris; [8]): 7%
- % Weed control burn down symptoms generation Observed (Cyanotis axillaris; [9]): 20%
- % Weed control burn down symptoms generation Observed (Cyanotis axillaris; [10]): 36%
- % Weed control burn down symptoms generation Observed (Parthenium hysterophorus; [3]): 0%
- % Weed control burn down symptoms generation Observed (Parthenium hysterophorus; [4]): 6%
- % Weed control burn down symptoms generation Observed (Parthenium hysterophorus; [5]): 11%
- % Weed control burn down symptoms generation Observed (Parthenium hysterophorus; [6]): 28%
- % Weed control burn down symptoms generation Observed (Parthenium hysterophorus; [7]): 0%
- % Weed control burn down symptoms generation Observed (Parthenium hysterophorus; [8]): 4%
- % Weed control burn down symptoms generation Observed (Parthenium hysterophorus; [9]): 6%
- % Weed control burn down symptoms generation Observed (Parthenium hysterophorus; [10]): 15%
- Phytotoxicity score (Soybean; soybean, in vivo, 1 days after application): 0
- Phytotoxicity score (Soybean; soybean, in vivo, 3 days after application): 0
- Phytotoxicity score (Soybean; soybean, in vivo, 7 days after application): 0
- Phytotoxicity score (Soybean; soybean, in vivo, 14 days after application): 0
- Phytotoxicity score (Soybean; soybean, in vivo, 21 days after application): 0
- Control on targeted weeds, applied alone ([2]; at 14 days): no or very less control
- Control on targeted weeds, applied alone ([2]; at 21 days): no or very less control
